How the values were obtained:
[1] = ND0612-001 dose proportionality, 24 hour continuous subcutaneous infusion; type: in vivo, human; details: healthy male subjects; LD (6% w/w)/CD (1.4% w/w) composition, 24 hour subcutaneous infusion at 80-240 μl/h
Protocol: Subjects were administered with a composition comprising LD (6% w/w)/CD (1.4% w/w) by way of a 24 hour continuous infusion at varying infusion rates: • Group 1:80 μl/h • Group 2:120 μl/h • Group 3:160 μl/h • Group 4:200 μl/h • Group 5:240 μl/h
Several PK parameters were derived for both LD and CD in the dose proportionality assessment, including AUC (hr*ng/ml), Cmax (ng/ml), C15 (ng/ml), and C24 (ng/mL).

[2] = ND0612-005a/ND0612-005b plasma carbidopa levels after subcutaneous carbidopa doses; type: in vivo, human; details: 60 mg/ml levodopa with 7.5, 6 or 4 mg/ml carbidopa over 24 hours, 17.9, 26.9, 33.6 mg/24 h carbidopa
Protocol: In a separate clinical trial (ND0612-005a and ND0612-005b, open label design studies), the plasma carbidopa levels were tested in view of the subcutaneous administration of several carbidopa doses. Three formulations, comprising 60 mg/ml levodopa and (a) 7.5 mg/ml; (b) 6 mg/ml; or 4 mg/ml of carbidopa, were administered to three groups of subjects over the course of 24 hours, providing a total of 17.9 mg/24 h carbidopa to each subject in the first group, 26.9 mg/24 h carbidopa to each subject in the second group and 33.6 mg/24 h carbidopa to each subject in the third group.

Row | dose proportionality of PK parameters (AUC, Cmax, C15, C24) [1] | carbidopa Cmax dose proportionality [2] | Compound
1 | demonstrated dose proportionality |  | N[C@@H](Cc1ccc(O)c(O)c1)C(=O)O [LD, L-3,4-dihydroxyphenylalanine]
2 | demonstrated dose proportionality | showed clear dose proportionality | C[C@@](Cc1ccc(O)c(O)c1)(NN)C(=O)O [CD, carbidopa]
